Source: the SangsterLogP compilation

SMILES | logP | other results
CC(=S)N(c1ccccc1)c1ccccc1 | 2.83 | 
O/N=C\c1ccc(F)cc1 | 2.03 | 
CC(C)(CCC(=O)O)C(=O)O |  | logD (pH 1.0): 0.67
CCCOC | 1.21 | 
Cc1ccc(C)[nH]1 | 1.47 | 
CC(=O)OC(C)(C)C | 1.76 | 
N#Cc1ccccc1N | 1.4 | 
CC1(C)CCCC(C)(C)N1 |  | logD (pH 13.0): 2.15
O=C1CN=C(c2ccccc2F)c2cc(Br)ccc2N1 |  | logD (pH 7.4): 2.98
C/C=C\C=C\C | 2.8 | 
Nc1cc(Cl)c(Cl)cc1N | 2 | 
CC1(C)COC(Cn2cncn2)(c2ccc(-n3ccnc3)cc2Cl)OC1 |  | logD (pH 7.0): 2.26
O=C1CC(c2ccc(C(F)(F)F)cc2)Cc2c1c(=O)c1cc(Cl)ccc1n2O (stereo not given) | 3.46 | 
NNc1ccc([N+](=O)[O-])cc1 |  | logD (pH 13.0): 1.41
O=Nc1ccc(NO)cc1 | 1.49 | 
CC(C)(C)n1ccnc1C=NO | 0.85 | 
c1ccc(P(c2ccccc2)c2ccccc2)cc1 | 5.69 | 
O=C1CC(Sc2ccncc2)N1 (stereo not given) | 0.61 | 
CN(C(=S)c1ccccc1)c1ccccc1 | 3.12 | 
O=C1C=CC(=O)N1c1ccccc1 | 1.09 | 
Cn1c([N+](=O)[O-])cnc1-c1ccc(N)cc1 |  | logD (pH 7.4): 1.06
COCC(O)Cn1cc([N+](=O)[O-])nn1 (stereo not given) | -0.36 | 
CC(C)C(C#N)Cc1ccc(Cl)cc1 (stereo not given) | 3.41 | 
CN(C1CCCCC1)C1CCCCC1 |  | logD (pH 13.0): 3.71

SMILES | logP | other results
C#CCN(CC#C)CC#C | 1.27 | 
CCn1cnc2c(NC(C)=O)ncnc21 | -0.41 | 
Nc1ncc(Cc2cccc(Cl)c2Cl)c(N)n1 |  | logD (pH 13.0): 2.81
CCOc1ccccc1OCC | 2.42 | 
c1ccc(OP2OCCO2)cc1 | 1.42 | 
CON=C(Cc1cccnc1)c1ccc(Cl)cc1Cl | 2.51 | 
CNCCO |  | logD (pH 13.0): -0.94
CC(=O)NCCCOc1cccc(CN2CCCCC2)c1 |  | logD (pH 11.3): 2.15
CC(C(=O)O)c1ccc(N2C(=O)C3CCCCC3C2O)cc1 (stereo not given) | 2.95 | 
Cc1cc(C)c(N(C)C)c(C)c1 |  | logD (pH 13.0): 4.44
O=C(COC(=O)c1ccccc1)NC1CCCCC1 | 2.81 | 
CC(C)(C)C(=O)c1ccccc1 | 3 | 
CCCc1ccc([N+](=O)[O-])cc1 |  | logD (pH 7.4): 3.45
O=[N+]([O-])c1cc2[nH]c(C(F)(F)F)nc2cc1Cl | 3.21 | 
COc1ccc(C(C)=O)c(OC)c1OC | 1.63 | 
N#CCC#N | -0.5 | 
CCCCCCCCCCCCCCc1cccc(N2C(N)=NC(N)=NC2(C)C)c1 | 3.64 | 
Cc1c[nH]cn1 |  | logD (pH 9.0): 0.23
CCCCOC(NC(=O)c1ccccc1O)C(Cl)(Cl)Cl (stereo not given) | 4.45 | 
CS(=O)(=O)N1C(=O)c2ccc(N)cc2C1=O | 0.8 | 
Cn1cccc1/C=N/NC(=S)Nc1ccccc1 | 3.64 | 
Cc1ccc(-c2noc(C)n2)cc1 | 2.74 | 
CNC(=N[N+](=O)[O-])NCCSCc1nc[nH]c1C | 0.13 | 
CCOC(=O)CCl |  | logD (pH 5.0): 0.94

SMILES | logP | other results
CCOC(=O)N(C)C | 0.89 | 
NNP(=O)(Oc1ccccc1)Oc1ccccc1 | 1.51 | 
O=C(Nc1ccccc1)Nc1ccccc1 | 3 | 
C1CCCCCC1 | 4 | 
c1ccc(COc2cccc3cccnc23)cc1 |  | logD (pH 7.4): 3.51
COC(=O)c1ccccc1N | 1.88 | 
O=C(O)Cc1ccc(N2Cc3ccccc3C2=O)cc1 | 2.9 | 
CN(C)c1ccc(C#N)cc1 | 2.2 | 
CNC(=O)c1cccc2cccnc12 |  | logD (pH 7.4): 1.87
CC(C)I | 2.89 | 
CNC(=O)CNC(=O)CCc1ccc(S(=O)(=O)N(C)C)cc1 | -0.35 | 
O=C(O)Cc1ccc2ccccc2c1 |  | logD (pH 1.0): 2.81
CC(C)(C)C1=Nc2ccc(Cl)cc2S(=O)(=O)N1 | 2.4 | 
C=CCn1cccn1 | 0.35 | 
O=C1CC(OC(=O)c2ccccc2)N1 (stereo not given) | 1.37 | 
O=[N+]([O-])c1ccc(NN=C(C(F)(F)F)C(F)(F)F)c([N+](=O)[O-])c1 |  | logD (pH 4.0): 3.8
CN(C)CCNCCN |  | logD (pH 13.0): -0.92
Nc1ccc(S)cc1 | 1.31 | 
O/N=C/c1ccc(Cl)cc1 | 2.67 | 
C=CCC | 2.4 | 
COc1ccc2c(c1OC)-c1ccc(OC)c(=O)cc1[C@@H](NC(C)=O)CC2 |  | logD (pH 7.0): 1.02
COC(=O)c1ccc(Cl)cc1 | 2.76 | 
Cn1c(N)nc2cc(Cl)ccc21 | 2.09 | 
NC(=O)c1nc[nH]c1N |  | logD (pH 9.0): -1.1

SMILES | logP | other results
N#CC1CC1 | 0.29 | 
Cc1nc(C)c([N+](=O)[O-])[nH]1 |  | logD (pH 7.4): 0.43
O=C1C=C(N2CC2)C(=O)C=C1N1CC1 | 0.18 | 
CC1(C)CNC(=NN=C(C=Cc2ccc(C(F)(F)F)cc2)C=Cc2ccc(C(F)(F)F)cc2)NC1 | 2.31 | 
CN(C)c1ccc2c(c1)C(=O)N(O)C2=O | 1.27 | 
CCCOP(OCCC)OCCC | 2.26 | 
CC(C(=O)O)c1ccc(N2CC3CCCCC3C2=O)cc1 (stereo not given) | 3.07 | 
CCn1cc(C)c(=O)[nH]c1=O | -0.15 | 
CC(=O)N=c1[nH]c(=O)ccn1C1OC(COC(C)=O)C(OC(C)=O)C1OC(C)=O (stereo not given) | -0.16 | 
Fc1cccnc1 | 0.77 | 
CCOC(=O)NNc1ccccc1 | 1.22 | 
FN(F)C(c1ccccc1)(c1ccccc1)c1ccccc1 | 3.73 | 
COc1c(C)ccc(Cc2cnc(N)nc2N)c1C(C)(C)C |  | logD (pH 13.0): 3.05
Nc1nc(=O)n([C@H]2CC[C@@H](CO)O2)cc1Br |  | logD (pH 7.0): -0.48
CC(C)Cc1cc([N+](=O)[O-])cc(C(C)C)c1O | 4.19 | 
COC(=O)CC(=O)OC | -0.05 | 
COC(=O)c1cc(Cl)ccc1N | 3.3 | 
CNc1ncnc2c1ncn2[C@H]1C[C@H](O)[C@@H](CO)O1 |  | logD (pH 7.0): -0.19
NC(=O)OCCc1cccc2c1C(=O)C(Br)=C(N1CC1)C2=O | 0.68 | 
CCON=C(OC(=O)c1ccccc1)c1c(OC)ccc(Cl)c1OC | 2.4 | 
Cc1ccnc(=O)[nH]1 | -1.45 | 
CC(=O)N(C)Nc1ccccc1 | 1.31 | 
CCC1COC(Cn2cncn2)(c2ccc(-n3cncn3)cc2Cl)O1 (stereo not given) |  | logD (pH 7.0): 1.28
Nc1ccccc1S(N)(=O)=O | 0.22 | 

SMILES | logP | other results
Cc1cc2c3ccccc3nc-2[nH]c1N |  | logD (pH 7.4): 2.9
Cc1ccc(Cc2cnc(N)nc2N)c(C)c1N |  | logD (pH 13.0): 1.12
CCOc1cccnc1 | 1.44 | 
COC(=O)c1ccc(NC(C)=O)cc1 |  | logD (pH 7.0): 1.64
Clc1cccc2cccnc12 |  | logD (pH 7.4): 2.44
C1=c2ccc3cccc4ccc(c2c43)CC1 | 4.92 | 
CC(C)[C@H](NC(=O)[C@H](Cc1ccccc1)NC(=O)OC(C)(C)C)C(=O)O | 2.88 | 
CN1CCN(C)CC1 |  | logD (pH 13.0): -0.4
Cc1c(Cl)cc(-c2ccc(=O)[nH]n2)cc1Cl | 3.2 | 
CCNCCNCC |  | logD (pH 13.0): 0.21
CCc1cccnc1 | 1.66 | 
COP(=S)(OC)SCC(=O)N(C)C=O | 1.48 | 
CNC(=S)N(C)C | 0.1 | 
CC(C)c1ccccc1N | 2.12 | 
CC(=O)Oc1ccc(N)cc1 | 0.45 | 
CCCCCCOc1ccc(S(N)(=O)=O)cc1 |  | logD (pH 2.1): 2.93
C1COC1 | -0.14 | 
Cc1ccno1 | 0.45 | 
CCCCSP(=O)(SCCCC)SCCCC | 3.23 | 
Cc1ccc(N(SC(F)(Cl)Cl)S(=O)(=O)N(C)C)cc1 | 3.95 | 
CC(Cl)[N+](=O)[O-] (stereo not given) | 1.1 | 
O=C1C=C(N2CCCC2)C(=O)C=C1N1CCCC1 | 1.97 | 
CCCN(CCC)c1c([N+](=O)[O-])cc(S(N)(=O)=O)cc1[N+](=O)[O-] | 3.73 | 
COC(=O)Nc1cccc(OC(=O)Nc2cccc(C)c2)c1 |  | logD (pH 3.9): 3.59

SMILES | logP | other results
CN(C)/C=C/[N+](=O)[O-] | -0.8 | 
CC1CN1C1=C(F)C(=O)C(N2CC2C)=C(F)C1=O (stereo not given) | 1.61 | 
Nc1n[nH]c(Cc2ccc([N+](=O)[O-])o2)n1 | 1.28 | 
NCCCN1CCN(CCCN)CC1 |  | logD (pH 13.0): -1.43
O=[N+]([O-])c1cn(Cc2ccccc2)cn1 |  | logD (pH 7.4): 1.36
Nc1ccc2c(c1)C(=O)N(O)C2=O | 0.16 | 
CC(C)(C)C(=O)C(C)(C)C | 3 | 
COc1ccccc1C(C)=O | 1.82 | 
O=C1C(=O)c2ccccc2-c2ccccc21 | 2.52 | 
CN1C(=O)CN=C(c2ccccc2)c2cc(C#N)ccc21 |  | logD (pH 7.4): 1.8
Cc1cccc(OCc2ccccc2)n1 | 3.43 | 
Cc1cscn1 | 0.97 | 
Cc1cccc(C)c1N | 1.84 | 
CCOc1cccc(Cl)n1 | 2.55 | 
NS(=O)(=O)Cc1ccccc1 | 0.13 | 
Nc1nc2c(ncn2[C@@H]2O[C@H](CO)[C@@H](O)[C@@H]2F)c(=O)[nH]1 |  | logD (pH 7.0): -1.18
C1CCC2=NCCCN2CC1 |  | logD (pH 13.0): 1.38
CCC(C)(C)Cl | 2.52 | 
CC(=NNc1c([N+](=O)[O-])cc(C(F)(F)F)cc1[N+](=O)[O-])C(F)(F)F |  | logD (pH 4.0): 3
COc1ccc2cc([C@H](C)C(=O)OCC(=O)N(CCO)CCO)ccc2c1 | 1.7 | 
CN(C)C(CSS(=O)(=O)c1ccccc1)CSS(=O)(=O)c1ccccc1 | 3.36 | 
Fc1cc(F)c(F)c(F)c1F | 2.53 | 
CC1NC(=O)C(CC(=O)N[C@@H](Cc2c[nH]c3ccccc23)C(=O)N[C@@H](Cc2ccccc2)C(=O)N(C)Cc2ccccc2)NC1=O (stereo not given in full) | 3.18 | 
CCOC(=O)C(Cl)(Cl)Cl | 2.39 | 

SMILES | logP | other results
O=C(OCCc1ccccc1)c1ccccc1 | 4.01 | 
CC(C)(C)N(CC(O)COc1ccccc1)CC(O)COc1ccccc1 (stereo not given) |  | logD (pH 13.0): 3.99
CCOc1ccc(C(C)(C)COCc2cccc(Oc3ccccc3)c2)cc1 | 7.05 | 
CN(C)c1nc2c3cccnc3ccc2n1C |  | logD (pH 7.4): 2.28
Nc1ccc(Sc2ccc(N)cc2)cc1 |  | logD (pH 7.4): 2.18
COc1ccc2c(c1)nc(N)n2C | 0.87 | 
Clc1c(Cl)c(Cl)c2ccccc2c1Cl | 5.75 | 
CN(C)C(=O)c1ccccc1O | 0.44 | 
CC(C)CC#N |  | logD (pH 1.0): 1.07
N#Cc1ccncc1C#N | 0.24 | 
CCOC(=O)CC(=O)c1ccccc1 | 1.87 | 
CCCCNC(=S)N(CCCC)CCCC | 3.68 | 
Cc1ccc2c(c1)nc(N)n2C | 1.47 | 
Cc1ccnc2ccccc12 |  | logD (pH 7.4): 2.61
CC1CC(C(=O)O)=C(C(=O)O)C(C)C1 (stereo not given) |  | logD (pH 1.0): 1.53
CCCCC#N |  | logD (pH 7.0): 1.12
FC(F)(F)c1ccccc1Cl | 3.53 | 
C=CCOCC1CO1 (stereo not given) | 0.46 | 
O=C(Nc1ccc(Cl)cc1)c1cccnc1 | 2.53 | 
CCOc1cccc2cccnc12 |  | logD (pH 7.4): 2.25
O=Cc1ccccn1 | 0.44 | 
